Measurements: patent US20240158348A1, “HERBICIDAL CYCLIC AMIDES N-SUBSTITUTED WITH A HALOALKYLSULFONYLANILIDE GROUP” (FMC Corporation, priority 2021, published 2024)

Experiments:
Type in all cases: in vivo
[1] = test system: foxtail, giant (giant foxtail, Setaria faberi); experiment: Test C preemergence, giant foxtail; conditions: 0 is no effect, 100 is complete control
Procedure, shortened: (§1)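 Herbicidal effect was estimated visually on a 0–100 scale 10 or 12 days after spraying. Formulation: non-phytotoxic solvent mixture with surfactant. Timing: directed soil spray after sowing, or postemergence on seedlings bearing one or two leaves.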

kochia (Bassia scoparia) = experiment: Test C preemergence, kochia; conditions: 0 is no effect, 100 is complete control
Procedure, shortened: as §1

[2] = test system: ryegrass, Italian (Italian ryegrass, Lolium multiflorum); experiment: Test C preemergence, Italian ryegrass; conditions: 0 is no effect, 100 is complete control
Procedure, shortened: as §1

soybean (Glycine max) = experiment: Test C preemergence, soybean; conditions: 0 is no effect, 100 is complete control
Procedure, shortened: as §1

[3] = test system: wheat (Triticum aestivum); experiment: Test C preemergence, wheat; conditions: 0 is no effect, 100 is complete control
[4] = test system: goosegrass (Eleusine indica); experiment: Test C postemergence, goosegrass; conditions: for Goosegrass plant response rating: 31 g ai/ha Postemergence, visual injury, 0 to 100 scale (0 no effect, 100 complete control); for Plant response rating (0 to 100 scale), Goosegrass: 125 g ai/ha Postemergence, 0 is no effect, 100 is complete control
Procedure, shortened: as §1

[5] = test system: oat, wild (wild oat, Avena fatua); experiment: Test C postemergence, wild oat; conditions: for Oat, Wild plant response rating: 31 g ai/ha Postemergence, visual injury, 0 to 100 scale (0 no effect, 100 complete control); for Plant response rating (0 to 100 scale), Oat, Wild: 125 g ai/ha Postemergence, 0 is no effect, 100 is complete control
[6] = test system: barnyardgrass (Echinochloa crusgalli); experiment: Test D flooded paddy test, barnyardgrass; design: key: 0 = no effect, 100 = complete control; conditions: 250 g ai/ha, Flood; applied to paddy water at 2-leaf stage; visual rating after 13 days; scale 0 (no effect) to 100 (complete control)
Procedure, shortened: (§2)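 Test compounds applied directly to paddy water after pots were flooded to 3 cm above soil, with plants at 2-leaf stage; depth held throughout. Greenhouse for 13 days, then visual rating versus controls on 0–100 scale (0 no effect, 100 complete control); dash means no result.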

[7] = test system: ducksalad (Heteranthera limosa); experiment: Test D flooded paddy test, ducksalad; design: key: 0 = no effect, 100 = complete control; conditions: 250 g ai/ha, Flood; applied to paddy water at 2-leaf stage; visual rating after 13 days; scale 0 (no effect) to 100 (complete control)
Procedure, shortened: as §2

Compound	Plant response rating (0 to 100 scale), Foxtail, Giant ([1]; 31 g ai/ha Preemergence)	Plant response rating (0 to 100 scale), Foxtail, Giant ([1]; 125 g ai/ha Preemergence)	Plant response rating (0 to 100 scale), Kochia (kochia (Bassia scoparia); 31 g ai/ha Preemergence)	Plant response rating (0 to 100 scale), Kochia (kochia (Bassia scoparia); 125 g ai/ha Preemergence)	Plant response rating (0 to 100 scale), Ryegrass, Italian ([2]; 31 g ai/ha Preemergence)	Plant response rating (0 to 100 scale), Ryegrass, Italian ([2]; 125 g ai/ha Preemergence)	Plant response rating (0 to 100 scale), Soybean (soybean (Glycine max); 31 g ai/ha Preemergence)	Plant response rating (0 to 100 scale), Soybean (soybean (Glycine max); 125 g ai/ha Preemergence)	Plant response rating (0 to 100 scale), Wheat ([3]; 31 g ai/ha Preemergence)	Plant response rating (0 to 100 scale), Wheat ([3]; 125 g ai/ha Preemergence)	Goosegrass plant response rating [4]	Plant response rating (0 to 100 scale), Goosegrass [4]	Oat, Wild plant response rating [5]	Plant response rating (0 to 100 scale), Oat, Wild [5]	Plant response rating, Barnyardgrass [6]	Plant response rating, Ducksalad [7]
Cc1cc(C)c(N(C(=O)OCC(C)C)S(=O)(=O)C(F)(F)F)cc1N1CCC(OC2CC2)C1=O (centres unmarked) [Compound 21]	100	100	60	90	70	100	0	60	10	90	90	90	40	70	95	98
Cc1cc(C)c(N2CCC(OCC3CC3)C2=O)cc1NS(=O)(=O)C(F)(F)F (centres unmarked) [Compound 22]	100	100	90	100	100	100	80	90	90	100	70	90	20	40	90	90
Cc1c(N2CCC(OC3CC3)C2=O)cc(N(COC(=O)C(C)(C)C)S(=O)(=O)C(F)(F)F)c(C)c1F (centres unmarked) [Compound 23]	20	90	20	90	30	100	30	40	10	30	30	90	20	50	95	80
Cc1c(NS(=O)(=O)C(F)(F)F)cc(N2CCC(OC3CCC3)C2=O)c(C)c1F (centres unmarked) [Compound 25]	100	100	70	100	90	100	80	90	60	100	50	90	0	20	0	75
Cc1c(NS(=O)(=O)C(F)(F)F)cc(N2CCC(OC3CC3)C2=O)c(C)c1F (centres unmarked) [Compound 26]	90	100	100	100	90	100	70	90	60	100	80	100	20	50	30	75
Cc1c(N2CCC(OC3CCC3)C2=O)cc(N(COC(=O)C(C)(C)C)S(=O)(=O)C(F)(F)F)c(C)c1F (centres unmarked) [Compound 28]	70	100	20	90	30	90	20	80	20	30	30	70	20	30	60	70
Cc1cc(C)c(N2CCC(OC3COC3)C2=O)cc1NS(=O)(=O)C(F)(F)F (centres unmarked) [Compound 34]	90	90	90	100	40	80	40	90	30	80	30	80	30	70	35	65
Cc1c(NS(=O)(=O)C(F)(F)F)cc(N2CCCC(OC3CC3)C2=O)c(C)c1F (centres unmarked) [Compound 35]	90	100	20	80	100	100	50	90	20	100	70	90	40	70	0	55
Cc1c(NS(=O)(=O)C(F)(F)F)cc(N2CCCC(OC3CCC3)C2=O)c(C)c1F (centres unmarked) [Compound 36]	50	100	20	90	100	100	90	90	40	100	30	90	30	30	0	65
Cc1c(N2CCCC(OC3CC3)C2=O)cc(N(COC(=O)C(C)(C)C)S(=O)(=O)C(F)(F)F)c(C)c1F (centres unmarked) [Compound 37]	20	90	0	90	30	70	0	30	0	20	0	90	20	70	90	70
CC(=O)N(c1cc(N2CCC(OC3CC3)C2=O)c(C)cc1Cl)S(=O)(=O)C(F)(F)F (centres unmarked) [Compound 38]	80	100	100	100	80	100	80	90	40	90	30	90	50	60	0	65
